Test results as given in ChEMBL document CHEMBL5729744, “Granzyme B directed imaging and therapy” (2023).

Biological target: Granzyme B (Homo sapiens, UniProt P10144)
Assay: Biochemical Assay: Buffer pH7.4: Prepare 1 (M) KH2PO4 and 1 (M) K2HPO4. Titrate 1(M) K2HPO4 with 1 (M) KH2PO4 to obtain pH 7.40. Dilute this buffer 10 fold in Water (30 ml buffer+270 ml of water) to obtain 100 mM phosphate buffer. Adjust pH to 7.40±0.02 using 5(N) HCl or 5(N) NaOH. NADPH Regeneration System (NRS): Prepare a solution containing 13 mM NADP, 33 mM Glucose-6-phosphate, 33 mM MgCl2and 4 U/ml Glucose-6-phosphate dehydrogenase in buffer. Liver Microsome (LM) suspension: Thaw LM vial on ice, then mix 1.0 ml LM (20 mg/ml) with 19 ml buffer [final LM Conc: 1 mg/ml] LM+NRS suspension: Mix 5.0 ml NRS with 20 ml LM suspension [final LM Conc: 0.8 mg/ml] System suitability standard: a synthesized compound having Mol wt 686.2 used as System suitability standard. Dissolve this compound in ice-cold acetonitrile to obtain concentration of 0.1 μg/ml and store at 4° C. Compound Dilution: Compound Stock: 10 mM in DMSO Sub stock (100 μM): 4 μl of 10 mM Compound Stock+398 μl Acetonitrile. Working plate (2 μM): 10 μl of 100 μM Sub stock+490 μl buffer Assay Procedure Incubate all plastic materials including tips at 37° C. overnight. Incubate LM suspension and NRS at 37° C. for 15 min before use. Add 40 μl buffer to the wells of blank plate. Add 40 μl compound (from working plate) to 0, 5, 10, 20, 30 and 60 min plates. Initiate reaction by adding 40 μl of LM+NRS suspension in each plate. […]

Sequence of Granzyme B (P10144 whole entry): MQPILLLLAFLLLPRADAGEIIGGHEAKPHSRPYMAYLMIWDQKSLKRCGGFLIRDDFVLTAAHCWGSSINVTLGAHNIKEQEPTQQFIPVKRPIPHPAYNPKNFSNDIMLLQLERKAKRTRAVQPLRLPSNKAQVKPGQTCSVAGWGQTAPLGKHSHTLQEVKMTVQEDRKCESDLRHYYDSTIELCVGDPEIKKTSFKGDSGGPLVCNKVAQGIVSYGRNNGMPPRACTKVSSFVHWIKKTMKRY

SMILES: O=C(Cc1ccccc1)NCC(=O)N[C@H]1CCc2cccc3c2N(C1=O)[C@H](C(=O)NCc1c[nH]nn1)C3
- IC50: > 5 µM
